Results on 25 compounds are retold here after patent US20250154173A1 (Merck Sharp & Dohme LLC, priority 2023, published 2025).

The target of the assay is T1, GST-RIPK1 (recombinant GST-RIPK1 kinase domain (residues 1-327)) (Homo sapiens, UniProt Q13546).
T1 construct: recombinant GST-RIPK1 kinase domain (residues 1-327) enzyme produced from baculovirus-transfected Sf21 cells; host or cells: baculovirus-transfected Sf21 insect cells
T1 sequence (Q13546 1-327): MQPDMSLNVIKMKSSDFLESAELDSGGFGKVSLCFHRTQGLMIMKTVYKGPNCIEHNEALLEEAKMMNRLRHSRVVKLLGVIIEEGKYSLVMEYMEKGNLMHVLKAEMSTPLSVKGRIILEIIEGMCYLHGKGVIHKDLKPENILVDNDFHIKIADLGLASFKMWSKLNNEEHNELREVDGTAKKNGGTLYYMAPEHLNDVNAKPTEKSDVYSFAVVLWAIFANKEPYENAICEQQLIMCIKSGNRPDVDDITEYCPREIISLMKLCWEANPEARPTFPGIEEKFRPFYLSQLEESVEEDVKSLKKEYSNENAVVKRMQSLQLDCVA
The assay is described as follows: RIPK1-ADP-Glo Enzymatic Assay. Format: biochemical. As to conditions: ten-point titration, top compound concentration of 100000 nM; 25 nM GST-RIPK1, 300 μM ATP, 3 μM dephosphorylated-MBP; 30 min pre-incubation, 150 min reaction. The procedure, abridged:
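GST-RIPK1 kinase domain (residues 1-327, Sf21-expressed), 25 nM, preincubated 30 min with compound, then reacted 150 min with 300 μM ATP and 3 μM dephosphorylated MBP in pH 7.3 Hepes buffer, 1% DMSO. ADP measured by ADP-Glo luminescence; EC50 from ten-point titration (top 100000 nM), four-parameter fit.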

Regarding `O=C1N2[C@@H](CC[C@H]2c2cc(F)cc(F)c2)O[C@]12C[C@H](Oc1ncnn3c(Br)ccc13)C2` [Example 11.1, (1r,3R,5′S,7a′R)-3-((7-bromopyrrolo[2,1-f][1,2,4]triazin-4-yl)oxy)-5′-(3,5-difluorophenyl)tetrahydro-3′H-spiro[cyclobutane-1,2′-pyrrolo[2,1-b]oxazol]-3′-one], the 50% effective concentration (EC50) amounted to 12 nM. For `N#CC1(c2ccc(COC3CC4(C3)O[C@@H]3CC[C@@H](c5cnccn5)N3C4=O)cc2)CC1` (stereo partly drawn) [Example 20.8, 1-[4-({[(5′S,7a′R)-3′-oxo-5′-(pyrazin-2-yl)tetrahydro-3′H-spiro[cyclobutane-1,2′-pyrrolo[2,1-b][1,3]oxazol]-3-yl]oxy}methyl)phenyl]cyclopropane-1-carbonitrile] the value was 236 nM. The result for `O=C1N2[C@@H](CC[C@H]2c2ccccc2)OC12CC(Oc1ccnc(C(F)(F)F)c1)C2` (stereo partly drawn) [Example 8.4, (5′S,7a′R)-5′-phenyl-3-{[2-(trifluoromethyl)pyridin-4-yl]oxy}tetrahydro-3′H-spiro[cyclobutane-1,2′-pyrrolo[2,1-b][1,3]oxazol]-3′-one] reads 86 nM. For `CC(OC1CC2(C1)O[C@@H]1CC[C@@H](c3cc(F)cc(F)c3)N1C2=O)c1ncccc1F` (single isomer, unassigned) [Example 12.4, (1S or R,3S or R,5′S,7a′R)-5′-(3,5-difluorophenyl)-3-((S or R)-1-(3-fluoropyridin-2-yl)ethoxy)tetrahydro-3′H-spiro[cyclobutane-1,2′-pyrrolo[2,1-b]oxazol]-3′-one], the half-maximal effective concentration (EC50) came to 329 nM. For `O=C1N2[C@@H](CC[C@H]2c2cnccn2)O[C@]12C[C@H](Oc1ccc(F)cc1F)C2` [Example 7.1, (1r,3R,5′S,7a′R)-3-(2,4-difluorophenoxy)-5′-(pyrazin-2-yl)tetrahydro-3′H-spiro[cyclobutane-1,2′-pyrrolo[2,1-b]oxazol]-3′-one] the value was 20 nM; for `O=C1N2[C@@H](CC[C@H]2c2ccccc2)OC12CC(Oc1ccnn3cccc13)C2` (stereo partly drawn) [Example 8.21, (5′S,7a′R)-5′-phenyl-3-[(pyrrolo[1,2-b]pyridazin-4-yl)oxy]tetrahydro-3′H-spiro[cyclobutane-1,2′-pyrrolo[2,1-b][1,3]oxazol]-3′-one], 39 nM. On to `O=C1N2[C@@H](CC[C@H]2c2cc(F)cc(F)c2)OC12CC(Oc1ccccc1)C2` (single isomer, unassigned) [Example 16.1, ((1s or r),3R,5′S,7a′R)-5′-(3,5-difluorophenyl)-3-phenoxytetrahydro-3′H-spiro[cyclobutane-1,2′-pyrrolo[2,1-b]oxazol]-3′-one], for which the concentration giving a half-maximal response (EC50) stood at 30 nM. For `O=C1N2C(CC[C@H]2c2cnccn2)OC12CC(OCc1ccc3scnc3c1)C2` (stereo partly drawn) [Example 18.61, (5′S)-3-[(1,3-benzothiazol-5-yl)methoxy]-5′-(pyrazin-2-yl)tetrahydro-3′H-spiro[cyclobutane-1,2′-pyrrolo[2,1-b][1,3]oxazol]-3′-one] the value was 37 nM. The result for `COc1ccc2cc(COC3CC4(C3)OC3CC[C@@H](c5cnccn5)N3C4=O)ncc2n1` (stereo partly drawn) [Example 18.32, (5′S)-3-[(2-methoxy-1,7-naphthyridin-6-yl)methoxy]-5′-(pyrazin-2-yl)tetrahydro-3′H-spiro[cyclobutane-1,2′-pyrrolo[2,1-b][1,3]oxazol]-3′-one] reads 143 nM; that for `COc1cc(COC2CC3(C2)OC2CC[C@@H](c4cnccn4)N2C3=O)cc2nccn12` (stereo partly drawn) [Example 18.34, (5′S)-3-[(5-methoxyimidazo[1,2-a]pyridin-7-yl)methoxy]-5′-(pyrazin-2-yl)tetrahydro-3′H-spiro[cyclobutane-1,2′-pyrrolo[2,1-b][1,3]oxazol]-3′-one], 231 nM.

Take `N#Cc1ccc(O[C@H]2C[C@@]3(C2)O[C@@H]2CC[C@@H](c4ccccc4)N2C3=O)cc1F` [Example 8.1, 2-fluoro-4-(((1r,3R,5′S,7a′R)-3′-oxo-5′-phenyltetrahydro-3′H-spiro[cyclobutane-1,2′-pyrrolo[2,1-b]oxazol]-3-yl)oxy)benzonitrile]: the concentration for a half-maximal effect (EC50) is 31 nM.

For the compound `O=C1N2[C@H](CC[C@H]2c2cnccn2)O[C@]12C[C@@H](Oc1ncnn3cccc13)C2` [Example 9.51, (1s,3R,5′R,7a′S)-5′-(pyrazin-2-yl)-3-(pyrrolo[2,1-f][1,2,4]triazin-4-yloxy)tetrahydro-3′H-spiro[cyclobutane-1,2′-pyrrolo[2,1-b]oxazol]-3′-one], the EC50 stood at 56 nM. For `O=C1N2C(CC[C@H]2c2cnccn2)OC12CC(OCc1cnn3cccnc13)C2` (stereo partly drawn) [Example 18.4, (5′S)-5′-(pyrazin-2-yl)-3-[(pyrazolo[1,5-a]pyrimidin-3-yl)methoxy]tetrahydro-3′H-spiro[cyclobutane-1,2′-pyrrolo[2,1-b][1,3]oxazol]-3′-one], the EC50 was 45 nM. For `N#Cc1ccnc(O[C@H]2C[C@@]3(C2)O[C@@H]2CC[C@@H](c4ccc(F)cc4)N2C3=O)c1` [Example 9.28, 2-{[(1r,3R,5′S,7a′R)-5′-(4-fluorophenyl)-3′-oxotetrahydro-3′H-spiro[cyclobutane-1,2′-pyrrolo[2,1-b][1,3]oxazol]-3-yl]oxy}pyridine-4-carbonitrile] the value was 16 nM. The result for `O=C1N2C(CC[C@H]2c2cnccn2)OC12CC(OCc1cnc3nccn3c1)C2` (stereo partly drawn) [Example 18.46, (5′S)-3-[(imidazo[1,2-a]pyrimidin-6-yl)methoxy]-5′-(pyrazin-2-yl)tetrahydro-3′H-spiro[cyclobutane-1,2′-pyrrolo[2,1-b][1,3]oxazol]-3′-one] reads 128 nM. For `Cn1ccc([C@@H]2CC[C@H]3OC4(CC(Oc5cnccn5)C4)C(=O)N32)n1` (stereo partly drawn) [Example 9.64, (5′S,7a′R)-5′-(1-methyl-1H-pyrazol-3-yl)-3-[(pyrazin-2-yl)oxy]tetrahydro-3′H-spiro[cyclobutane-1,2′-pyrrolo[2,1-b][1,3]oxazol]-3′-one] the value was 124 nM. `Cn1nccc1-c1cccc(OC2CC3(C2)O[C@@H]2CC[C@@H](c4cnccn4)N2C3=O)c1` (stereo partly drawn) [Example 19.14, (5′S,7a′R)-3-[3-(1-methyl-1H-pyrazol-5-yl)phenoxy]-5′-(pyrazin-2-yl)tetrahydro-3′H-spiro[cyclobutane-1,2′-pyrrolo[2,1-b][1,3]oxazol]-3′-one]: the EC50 came to 16 nM.

On to `Cn1ccc([C@@H]2CC[C@H]3O[C@]4(C[C@H](Oc5ncnn6cccc56)C4)C(=O)N32)n1` [Example 9.63, (1r,3R,5′S,7a′R)-5′-(1-methyl-1H-pyrazol-3-yl)-3-[(pyrrolo[2,1-f][1,2,4]triazin-4-yl)oxy]tetrahydro-3′H-spiro[cyclobutane-1,2′-pyrrolo[2,1-b][1,3]oxazol]-3′-one], for which the EC50 is 33.3 nM. Turning to `O=C1N2[C@@H](CC[C@H]2c2cnccn2)O[C@]12C[C@@H](OCc1ccccc1Cl)C2` [Example 22.1, (1S,3S,5′S,7a′R)-3-((2-chlorobenzyl)oxy)-5′-(pyrazin-2-yl)tetrahydro-3′H-spiro[cyclobutane-1,2′-pyrrolo[2,1-b]oxazol]-3′-one], the EC50 came to 18 nM.

On to `O=C1N2[C@@H](CC[C@H]2c2ccc(F)cc2)O[C@]12C[C@H](Oc1nccc3nccn13)C2` [Example 9.34, (1r,3R,5′S,7a′R)-5′-(4-fluorophenyl)-3-[(imidazo[1,2-c]pyrimidin-5-yl)oxy]tetrahydro-3′H-spiro[cyclobutane-1,2′-pyrrolo[2,1-b][1,3]oxazol]-3′-one], for which the EC50 was found to be 19 nM. For `O=C1N2[C@@H](CC[C@H]2c2cnccn2)O[C@]12C[C@@H](Oc1ncnn3cccc13)C2` [Example 9.45, (1s,3S,5′S,7a′R)-5′-(pyrazin-2-yl)-3-(pyrrolo[2,1-f][1,2,4]triazin-4-yloxy)tetrahydro-3′H-spiro[cyclobutane-1,2′-pyrrolo[2,1-b]oxazol]-3′-one] the value was 233 nM; for `O=C1N2[C@@H](CC[C@H]2c2cc(F)cc(F)c2)OC12CC(Oc1ccc(F)cn1)C2` (single isomer, unassigned) [Example 9.35], 64 nM. Turning to `O=C1N2[C@@H](CC[C@H]2c2cnccn2)OC12CC(OCc1ccc(-c3nnco3)cc1)C2` (stereo partly drawn) [Example 18.58, (5′S, 7a′R)-3-{[4-(1,3,4-oxadiazol-2-yl)phenyl]methoxy}-5′-(pyrazin-2-yl)tetrahydro-3′H-spiro[cyclobutane-1,2′-pyrrolo[2,1-b][1,3]oxazol]-3′-one], the concentration giving a half-maximal response (EC50) worked out at 40 nM.

As to `O=C1N2C(CC[C@H]2c2cnccn2)OC12CC(OCc1ccnc3ccnn13)C2` (stereo partly drawn) [Example 18.31, (5′S)-5′-(pyrazin-2-yl)-3-[(pyrazolo[1,5-a]pyrimidin-7-yl)methoxy]tetrahydro-3′H-spiro[cyclobutane-1,2′-pyrrolo[2,1-b][1,3]oxazol]-3′-one], the concentration giving a half-maximal response (EC50) was 428 nM. The result for `O=C1N2[C@@H](CC[C@H]2c2cncc(F)c2)OC12CCC(Oc1ccccc1)CC2` (single isomer, unassigned) [Example 16.3, (1r or s),(5′S,7a′R)-5′-(5-fluoropyridin-3-yl)-4-phenoxytetrahydro-3′H-spiro[cyclohexane-1,2′-pyrrolo[2,1-b]oxazol]-3′-one] reads 62 nM.
